Data from patent US9073944B2, “Cyclic diaminopyrimidine derivatives” (Merck Patent GmbH, priority 2012, dated 2015).

Assays:
SYK = SYK (Homo sapiens, UniProt P43405); experiment: SYK flash plate assay; type: biochemical; conditions: class symbols; read-out: IC50 SYK (enzyme assay)
Experimental: The kinase assay is performed either as 384-well Flashplate assay (for e.g. Topcount measurement) or as 384-well Image-Flashplate assay (for LEADseeker measurement). • 2.5 nM SYK, 400 nM Biotin-Aha-Aha-KEDPDYEWPSAKK • and 10 μM ATP (spiked with 0.3 μCi 33P-ATP/well) are incubated in a total volume of 50 μl (60 mM Hepes, 10 mM MgCl2, 1.2 mM Dithiothreitol, 0.02% Brij35, 0.1% BSA, pH 7.5) with or without test compound for 1 hours at 30° C. The reaction is stopped with 25 μl 200 mM EDTA. After 30 Min at 30° C. the liquid is removed and each well washed thrice with 100 μl 0.9% sodium chloride solution. Non-specific reaction is determined in presence of 0.1 μM Staurosporine. Radioactivity is measured with Topcount (when using Flashplates) or with LEADseeker (when using Image-Flashplates) respectively. Results (e.g. IC50-values) are calculated with program tools provided by the IT-department (e.g. Symyx Assay Explorer, Genedata Screener). In vivo Assays CIA

GCN2 = GCN2 (Homo sapiens, UniProt Q9P2K8); experiment: GCN2 enzyme assay (TR-FRET Lanthascreen, GFP-eIF2alpha substrate); type: biochemical; conditions: class symbols
Experimental: APCI-MS (atmospheric pressure chemical ionisation-mass spectrometry) (M+H)^+. • Mass spectrometry (MS): EI (electron impact ionisation) M^+ • FAB (fast atom bombardment) (M+H)^+ • ESI (electrospray ionisation) (M+H)^+ • m.p.=melting point • LCMS Method: • Column: ZORBAX SB-C8 30*4.6 mm, 3.5 um • Mobile Phase A: Water+0.03% TFA • Mobile Phase B: ACN+0.05% TFA • Gradient: 5-95% B in 2.5 minutes • Flow: 2.0 mL/min • Wavelength: UV1:220 nm, UV2:254 nm • Mass Scan: 100-900 Da GCN2: Assay Principle & Conditions
This assay can quantificate the activity of the serin kinase GCN2 (general control non-derepressible-2).
This kinase is involved in the stress metabolism of cells. It is activated upon starvation (amino acid depletion). Its natural substrate is eIF2a (eukaryotic initiation factor 2 alpha subunit), a translation factor, which gets activated (phosphorylated) by GCN2 in case of an amino acid bottleneck in the cells. This in turn leads to a halt of the protein synthesis. Inhibition of GCN2 results in stopping this mechanism: The cell can not stop protein production upon “starvation” stress.
The assay is run in two steps: the enzymatic reaction and the detection step. In the first step GCN2 is incubated with 10 μM ATP and 80 nM of the GFP-labelled substrate eIF2alpha at room temperature.
The enzymatic reaction is stopped by addition of EDTA. The amount of phosphorylated eIF2alpha is determined by TR-FRET (Lanthascreen): A complex is formed consisting of antibody and GFP labelled phospho-eIF2a, which allows a FRET upon exitation at 340 nm.
The GCN2-activity is directly proportional to the ratio of fluorescence units at the emission wavelength 520 nm (phosphopeptide-sensitive wavelength=emission of GFP) to the units at 495 nm (reference wavelength=emission of Terbium-chelate).
Final Concentrations in the Enzymatic Reaction

Chain of GCN2 (Q9P2K8 whole entry, species assumed): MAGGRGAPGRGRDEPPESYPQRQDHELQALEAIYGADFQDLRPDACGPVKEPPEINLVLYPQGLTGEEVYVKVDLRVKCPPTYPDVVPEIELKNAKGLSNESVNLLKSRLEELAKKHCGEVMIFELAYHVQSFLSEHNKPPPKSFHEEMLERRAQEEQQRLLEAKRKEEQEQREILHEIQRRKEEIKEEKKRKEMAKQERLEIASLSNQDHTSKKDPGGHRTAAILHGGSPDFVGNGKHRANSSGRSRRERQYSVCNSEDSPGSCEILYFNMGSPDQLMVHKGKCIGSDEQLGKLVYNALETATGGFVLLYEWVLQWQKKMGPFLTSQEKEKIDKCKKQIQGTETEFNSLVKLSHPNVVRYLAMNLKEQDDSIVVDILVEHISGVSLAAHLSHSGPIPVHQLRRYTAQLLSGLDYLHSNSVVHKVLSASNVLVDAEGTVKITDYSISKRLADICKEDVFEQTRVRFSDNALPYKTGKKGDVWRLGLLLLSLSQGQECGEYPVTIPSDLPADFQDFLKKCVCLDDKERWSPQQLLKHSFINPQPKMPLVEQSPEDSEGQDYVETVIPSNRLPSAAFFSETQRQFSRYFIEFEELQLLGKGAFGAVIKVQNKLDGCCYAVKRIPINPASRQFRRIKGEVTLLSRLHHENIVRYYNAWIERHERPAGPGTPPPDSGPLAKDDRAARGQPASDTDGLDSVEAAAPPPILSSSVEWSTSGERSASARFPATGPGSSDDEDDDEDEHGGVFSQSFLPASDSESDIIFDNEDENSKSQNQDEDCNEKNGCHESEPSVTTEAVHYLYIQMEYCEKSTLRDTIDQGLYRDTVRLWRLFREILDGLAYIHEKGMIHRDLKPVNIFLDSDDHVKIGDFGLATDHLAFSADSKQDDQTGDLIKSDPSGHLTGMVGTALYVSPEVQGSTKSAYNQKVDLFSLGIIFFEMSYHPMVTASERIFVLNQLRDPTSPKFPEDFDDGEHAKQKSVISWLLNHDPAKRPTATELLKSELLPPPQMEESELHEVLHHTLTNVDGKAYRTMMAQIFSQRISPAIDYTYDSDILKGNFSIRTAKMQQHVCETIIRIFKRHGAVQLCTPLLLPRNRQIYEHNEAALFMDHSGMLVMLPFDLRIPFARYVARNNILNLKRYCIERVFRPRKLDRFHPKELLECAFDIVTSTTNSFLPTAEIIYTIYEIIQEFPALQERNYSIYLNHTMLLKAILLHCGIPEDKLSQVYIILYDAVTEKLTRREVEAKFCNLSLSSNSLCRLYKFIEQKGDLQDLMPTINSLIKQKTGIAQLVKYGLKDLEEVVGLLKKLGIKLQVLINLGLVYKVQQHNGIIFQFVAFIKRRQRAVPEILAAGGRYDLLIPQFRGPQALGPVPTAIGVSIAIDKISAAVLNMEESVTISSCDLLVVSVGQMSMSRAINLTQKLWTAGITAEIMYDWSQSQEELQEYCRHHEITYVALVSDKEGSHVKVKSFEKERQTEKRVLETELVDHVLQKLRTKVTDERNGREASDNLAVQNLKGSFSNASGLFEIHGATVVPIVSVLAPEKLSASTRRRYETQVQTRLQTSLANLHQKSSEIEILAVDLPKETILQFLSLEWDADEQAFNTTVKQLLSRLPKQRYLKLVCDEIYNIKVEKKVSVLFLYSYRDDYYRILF

IC50 (SYK) | IC50 (GCN2) | Compound
3 to 50 µM | – | CN1CC(=O)N(C)c2cccc(c2)Nc2ncc(F)c(n2)Nc2ccc3c(c2)NC(=O)C(C)(O3)C1=O (stereo not drawn) [Compound B1]
< 0.3 µM | – | COc1cc2cc(c1)NC(=O)CN(C)C(=O)C1(C)Oc3ccc(cc3NC1=O)Nc1nc(ncc1F)C2 (stereo not drawn) [Compound B2]
3 to 50 µM | – | COc1cc2c3cc1Nc1ncc(F)c(n1)Nc1ccc4c(c1)NC(=O)C(C)(O4)C(=O)NCCN(C)CC(=O)N3CC2 (stereo not drawn) [Compound B7]
3 to 50 µM | 0.3 to 3 µM | COc1cc2ccc1OCCCNC(=O)C1(C)Oc3ccc(cc3NC1=O)Nc1nc(ncc1F)N2 (stereo not drawn) [Compound B11]
3 to 50 µM | 0.3 to 3 µM | COc1cc2ccc1OCCCCNC(=O)C1(C)Oc3ccc(cc3NC1=O)Nc1nc(ncc1F)N2 (stereo not drawn) [Compound B12]
0.3 to 3 µM | – | CC12Oc3ccc(cc3NC1=O)Nc1nc(ncc1F)Nc1ccc(cc1)OCCC(=O)NCCCNC2=O (stereo not drawn) [Compound B15]
0.3 to 3 µM | – | CC12Oc3ccc(cc3NC1=O)Nc1nc(ncc1F)Nc1ccc(cc1)OCCCC(=O)NCCCNC2=O (stereo not drawn) [Compound B16]
3 to 50 µM | – | CC12Oc3ccc(cc3NC1=O)Nc1nc(ncc1F)Nc1cccc(c1)NC(=O)N1CCC[C@H]1C(=O)NCCCNC2=O (stereo partly drawn) [Compound B17]
– | 0.3 to 3 µM | CC12Oc3ccc(cc3NC1=O)Nc1nc(ncc1F)Nc1cccc(c1)S(=O)(=O)NCCC(=O)NCCCNC2=O (stereo not drawn) [Compound B18]
0.3 to 3 µM | – | COc1ccc2cc1Nc1ncc(F)c(n1)Nc1ccc3c(c1)NC(=O)C(C)(O3)C(=O)NCCNC2=O (stereo not drawn) [Compound B19]
0.3 to 3 µM | 3 to 50 µM | COc1cc2ccc1OCCCCNC(=O)[C@@H](Cc1ccccc1)NC(=O)[C@]1(C)Oc3ccc(cc3NC1=O)Nc1nc(ncc1F)N2 [Compound B20]
0.3 to 3 µM | 0.3 to 3 µM | COc1cc2cc(c1)C(=O)NCCNC(=O)C1(C)Oc3ccc(cc3NC1=O)Nc1nc(ncc1F)N2 (stereo not drawn) [Compound B23]
0.3 to 3 µM | – | COc1cc2ccc1OCCNC(=O)[C@H](Cc1ccccc1)NC(=O)[C@]1(C)Oc3ccc(cc3NC1=O)Nc1nc(ncc1F)N2 [Compound B25]

The next lines start with the compound.

Compound | IC50 (SYK) | IC50 (GCN2)
CN1CC(=O)Nc2cccc(c2)Nc2ncc(F)c(n2)Nc2ccc3c(c2)NC(=O)C(C)(O3)C1=O (racemic) [Compound 15] | < 0.3 µM | 0.3 to 3 µM
CN1CC(=O)Nc2cccc(c2)Nc2ncc(F)c(n2)Nc2ccc3c(c2)NC(=O)[C@@](C)(O3)C1=O (single isomer, unassigned) [Compound 16] | 0.3 to 3 µM | 3 to 50 µM
CN1CC(=O)Nc2cccc(c2)Nc2ncc(F)c(n2)Nc2ccc3c(c2)NC(=O)[C@](C)(O3)C1=O (single isomer, unassigned) [Compound 17] | < 0.3 µM | 0.3 to 3 µM
CC12CCOC(=O)Nc3cccc(c3)Nc3ncc(F)c(n3)Nc3ccc(c(c3)NC1=O)O2 (stereo not drawn) [Compound 6] | < 0.3 µM | –
CC12CCOC(=O)NCc3cccc(c3)Nc3ncc(F)c(n3)Nc3ccc(c(c3)NC1=O)O2 (stereo not drawn) [Compound 9] | < 0.3 µM | –
CC12Oc3ccc(cc3NC1=O)Nc1nc(ncc1F)Nc1cccc(c1)CCNC2=O (stereo not drawn) [Compound 12] | 3 to 50 µM | 3 to 50 µM
